Measurements taken from patent US20200255438A1, “NOVEL SALTS” (priority 2017, published 2020).

Assays:
[1] = Aqueous solubility (equilibration in de-ionised water, HPLC); type: physicochemical; conditions: for Form retention of solids after solubility equilibration (XRPD): 24 hours in de-ionised water, solids dried at 50° C., re-analysed by XRPD; for solubility at 24 h: de-ionised water, water, thermodynamic from solid, 25° C.
Procedure: […] Solids were isolated by filtration to deliver clear liquors that were analyzed for API content by HPLC vs a known standard of free base (typical dilution of 50× using deionized water for salt candidates to deliver a working concentration in line with the standard at 0.5 mg/ml). The solids were dried at 50° C. and re-analysed by XRPD to confirm form retention—both mesylate and citrate retain form.

[2] = Solid form stability under extremes of humidity (XRPD post DVS/GVS); type: physicochemical; conditions: 0% RH and 90% RH, XRPD vs input
From the text: FIG. 1: XRPD patterns of citrate salt (Example 1), Ex-DVS examination at 0% RH, (top panel), 90% RH, (middle panel) and input (bottom panel).
FIG. 3: XRPD data for mesylate salt (Example 2) exposed to extremes of humidity post GVS cycle: input (bottom panel) output 0% (top panel) output 90% (middle panel).
X-Ray Powder Diffraction (XRPD)
X-Ray Powder Diffraction patterns were collected on a PANalytical diffractometer using Cu Kα radiation (45 kV, 40 mA), θ−θ goniometer, focusing mirror, divergence slit (½″), soller slits at both incident and divergent beam (4 mm) and a PIXcel detector. The software used for data collection was X'Pert Data Collector, version 2.2f and the data was presented using X'Pert Data Viewer, version 1.2d.
XRPD patterns were acquired under ambient conditions via a transmission foil sample stage (polyimide—Kapton, 12.7 μm thickness film) under ambient conditions using a PANalytical X'Pert PRO. The data collection range was 2.994-35°2θ with a continuous scan speed of 0.202004°s^−1.

Compound | Form retention of solids after solubility equilibration (XRPD) [1] | solubility at 24 h [1] | Crystalline form stability / hydrate formation under different extremes of humidity (XRPD) [2]
Cc1cc(-c2ccc(C(F)(F)F)cc2)nc([C@H]2CC[C@@]3(CCN(C)C3=O)N2)n1.O=C(O)CC(O)(CC(=O)O)C(=O)O [Example 1, (2R,5S)-7-Methyl-2-[4-methyl-6-[4-(trifluoromethyl)-phenyl]pyrimidin-2-yl]-1,7-diazaspiro[4.4]nonan-6-one citric acid (citrate) salt] | retain form | 22 mg/mL | no tendency to form hydrates
CS(=O)(=O)O.Cc1cc(-c2ccc(C(F)(F)F)cc2)nc([C@H]2CC[C@@]3(CCN(C)C3=O)N2)n1 [Example 2, (2R,5S)-7-Methyl-2-[4-methyl-6-[4-(trifluoromethyl)-phenyl]pyrimidin-2-yl]-1,7-diazaspiro[4.4]nonan-6-one methanesulfonic acid (mesylate) salt] | retain form | 65 mg/mL | no tendency to form hydrates
